Data as given in US9278134B2, “Dual functioning ionic liquids and salts thereof” (priority 2008, dated 2016).

Test: Thermal decomposition onset (T5% onset) by TGA
Details: not given

Molecule | T5%onset
Caffeine Salicylate [Example 13] | 111 °C
CC(CN1c2ccccc2Sc2ccccc21)N(C)C.CN[C@@H](C)[C@H](O)c1ccccc1.O=C(O)c1ccccc1O (centres unmarked) [Example 29, Promethazine-ephedrinium Salicylate] | 151 °C
CC(CN1c2ccccc2Sc2ccccc21)N(C)C.CCCCC(CC)COC(=O)CC(C(=O)OCC(CC)CCCC)S(=O)(=O)O.CN[C@@H](C)[C@H](O)c1ccccc1 (centres unmarked) [Example 27, Promethazine-ephedrinium Docusate 1:1:1] | 164 °C
CN[C@@H](C)[C@H](O)c1ccccc1.O=C(O)c1ccccc1O [Eph:Sal 1:1, Ephedrinium Salicylate] | 161 °C
CCCC[P+](CCCC)(CCCC)CC(=O)Oc1ccc(NC(C)=O)cc1 [Example 34, (2-(4-acetamidophenoxy)-2-oxoethyl)tributylphosphonium Chloride] | 197 °C
CC(=O)Nc1ccc(OC(=O)C[N+]2(C)CCCC2)cc1.CC(O)C(=O)O [Example 40, 1-(2-(4-acetamidophenoxy)-2-oxoethyl)-1-methylpyrrolidinium Lactate] | 166 °C
Triethanolammonium Ibuprofenate [Example 64] | 163 °C
CC(=O)Nc1ccc(OC(=O)C[n+]2ccccc2)cc1 [Example 33, 1-(2-(4-acetamidophenoxy)-2-oxoethyl)pyridinium Chloride] | 198 °C
CC(C)Cc1ccc(C(C)C(=O)O)cc1.CCN(CC)CCNC(=O)c1ccc(N)cc1 [Example 62, Procainamide Ibuprofenate] | 182 °C
CC(=O)Nc1ccc(OC(=O)C[n+]2ccccc2)cc1 [Example 37, 1-(2-(4-acetamidophenoxy)-2-oxoethyl)pyridinium Docusate] | 238 °C
CC(=O)Nc1ccc(OC(=O)Cn2cc[n+](C)c2)cc1 [Example 31, 1-(2-(4-acetamidophenoxy)-2-oxoethyl)-3-methyl-1H-imidazol-3-ium Chloride] | 200 °C
CC(C)=CCC/C(C)=C/COC(=O)Cn1cc[n+](C)c1 [Example 43, (E)-1-(2-(3,7-dimethylocta-2,6-dienyloxy)-2-oxoethyl)-3-methyl-1H-imidazol-3-ium Chloride] | 125 °C
CCN(CC)CC(=O)Nc1c(C)cccc1C.O=C(O)c1ccccc1O [Lid:Sal 1:1, Lidocainium Salicylate] | 161 °C
CCCCC(CC)COC(=O)CC(C(=O)OCC(CC)CCCC)S(=O)(=O)O.CCN(CC)CCNC(=O)c1ccc(N)cc1 (centres unmarked) [Example 63, Procainamide Docusate] | 231 °C
CC(C)Cc1ccc(C(C)C(=O)O)cc1.CN[C@@H](C)[C@H](O)c1ccccc1 (centres unmarked) [Example 57, Ephedrinium Ibuprofenate] | 238 °C
Benzethonium Salicylate [Example 53] | 180 °C
CC(C)Cc1ccc(C(C)C(=O)O)cc1.COc1cccc(C2(O)CCCCC2CN(C)C)c1 (racemic) [Example 48, Tramadolium rac-ibuprofenate] | 175 °C
CCN(CC)CCNC(=O)c1ccc(N)cc1.O=C(O)c1ccccc1O [Example 61, Procainamide Salicylate] | 199 °C

Molecule | T5%onset
CCCCC(CC)COC(=O)CC(C(=O)OCC(CC)CCCC)S(=O)(=O)O.COc1cccc(C2(O)CCCCC2CN(C)C)c1 (centres unmarked) [Example 51, Tramadolium Docusate] | 226 °C
CC(=O)Nc1ccc(OC(=O)C[N+]2(C)CCCC2)cc1 [Example 36, 1-(2-(4-acetamidophenoxy)-2-oxoethyl)-1-methylpyrrolidinium Docusate] | 233 °C
CCCC[PH](CCCC)(CCCC)CC(=O)Oc1ccc(NC(C)=O)cc1 [Example 38, (2-(4-acetamidophenoxy)-2-oxoethyl)tributylphosphonium Docusate] | 227 °C
COc1cccc(C2(O)CCCCC2CN(C)C)c1.Cc1ccc(Cl)c(Nc2ccccc2C(=O)O)c1Cl (centres unmarked) [Example 50, Tramadolium Meclofenamate] | 172 °C
CC(=O)Nc1ccc(OC(=O)C[N+]2(C)CCCC2)cc1 [Example 32, 1-(2-(4-acetamidophenoxy)-2-oxoethyl)-1-methylpyrrolidinium Chloride] | 197 °C
CCN(CC)CC(=O)Nc1c(C)cccc1C.COc1cccc(C2(O)CCCCC2CN(C)C)c1.O=C(O)c1ccccc1O (centres unmarked) [Example 26, Tramadolium-lidocaine Salicylate] | 181 °C
CC(C)=CCC/C(C)=C/COC(=O)CCC(=O)O [Example 46, 2-Hydroxy-N,N,N-trimethylethanaminium (E)-4-(3,7-dimethylocta-2,6-dienyloxy)-4-oxobutanoate] | 170 °C
CC(C)Cc1ccc(C(C)C(=O)[O-])cc1.CCCC[P+](CCCC)(CCCC)CCCC [P(Bu)4Ibu 1:1, Tetrabutylphosphonium Ibuprofenate] | 234 °C
Cetylpyridinium Salicylate-cinnamate [CetPySalCinnH] | 162 °C
CC(C)=CCC/C(C)=C/COC(=O)Cn1cc[n+](C)c1 [Example 44, (E)-1-(2-(3,7-dimethylocta-2,6-dienyloxy)-2-oxoethyl)-3-methyl-1H-imidazol-3-ium Docusate] | 170 °C
COc1cccc(C2(O)CCCCC2CN(C)C)c1.O=C(O)c1ccccc1O (centres unmarked) [Example 47, Tramadolium Salicylate] | 220 °C
Choline Docusate [Example 67] | 189 °C
CCCCC(CC)COC(=O)CC(C(=O)OCC(CC)CCCC)S(=O)(=O)[O-].CCCC[P+](CCO)(CCCC)CCCC (centres unmarked) [Example 66, Tributylhydroxyethylphosphonium Docusate] | 280 °C
CCCCCCCCCCCCCCCC[n+]1ccccc1 [CetPy:Sal 1:1, Cetylpyridinium Salicylate] | 206 °C
CC(CN1c2ccccc2Sc2ccccc21)N(C)C.CCCCC(CC)COC(=O)CC(C(=O)OCC(CC)CCCC)S(=O)(=O)O (centres unmarked) [Example 60, Promethazine Docusate] | 246 °C
CCN(CC)CC(=O)Nc1c(C)cccc1C.CN[C@@H](C)[C@H](O)c1ccccc1.O=C(O)c1ccccc1O [Example 23, Ephedrinium-lidocaine Salicylate] | 149 °C
CC(C)(Oc1ccc(Cl)cc1)C(=O)O.CN[C@@H](C)[C@H](O)c1ccccc1 [Eph:Clofib 1:1, Ephedrinium Clofibrate] | 166 °C
CCCCC(CC)COC(=O)CC(C(=O)OCC(CC)CCCC)S(=O)(=O)O.CN[C@@H](C)[C@H](O)c1ccccc1 (centres unmarked) [Example 59, Ephedrinium Docusate] | 238 °C

Same assay, conditions: TGA/DSC, 25° C. to 600° C. with 5° C./min under nitrogen; cetylpyridinium salicylate-salicylic acid co-ionic liquids

Molecule | T5%onset
Cetylpyridinium Salicylate-salicylic Acid [CetPy:Sal 1:3] | 162 °C
CCCCCCCCCCCCCCCC[n+]1ccccc1 [CetPy:Sal 1:1, Cetylpyridinium Salicylate] | 206 °C
Cetylpyridinium Salicylate-salicylic Acid [CetPy:Sal 1:2] | 184 °C

Same assay, conditions: TGA/DSC, 25° C. to 600° C. with 5° C./min under nitrogen; choline salicylate-salicylic acid co-ionic liquids

Molecule | T5%onset
C[N+](C)(C)CCO.O=C([O-])c1ccccc1O [Cho:Sal 1:1, choline salicylate] | 203 °C

Same assay, conditions: TGA/DSC, 25° C. to 600° C. with 5° C./min under nitrogen; ephedrinium clofibrate co-ionic liquids prepared by melting

Molecule | Tonset 5%
CC(C)(Oc1ccc(Cl)cc1)C(=O)O.CN[C@@H](C)[C@H](O)c1ccccc1.CN[C@@H](C)[C@H](O)c1ccccc1 [Eph:Clofib 2:1, Ephedrinium Clofibrate] | 135 °C
CC(C)(Oc1ccc(Cl)cc1)C(=O)O.CN[C@@H](C)[C@H](O)c1ccccc1 [Eph:Clofib 1:1, Ephedrinium Clofibrate] | 169 °C
Ephedrinium Clofibrate [Eph:Clofib 1:2] | 182 °C

Same assay, conditions: TGA/DSC, 25° C. to 600° C. with 5° C./min under nitrogen; lidocaine salicylate co-ionic liquids

Molecule | Tonset 5%
Lidocaine Salicylates [Lid:Sal 3:1] | 161 °C
Lidocaine Salicylates [Lid:Sal 2.5:1] | 137 °C
Lidocaine Salicylates [Lid:Sal 1:3] | 128 °C
CCN(CC)CC(=O)Nc1c(C)cccc1C [Lid, lidocaine, reference compound] | 152 °C
Lidocaine Salicylates [Lid:Sal 1:1.5] | 142 °C
CCN(CC)CC(=O)Nc1c(C)cccc1C.O=C(O)c1ccccc1O [Lid:Sal 1:1, Lidocainium Salicylate] | 161 °C
Lidocaine Salicylates [Lid:Sal 1.5:1] | 169 °C
O=C(O)c1ccccc1O [Salicylic acid, reference compound] | 134 °C
Lidocaine Salicylates [Lid:Sal 1:2] | 138 °C
Lidocaine Salicylates [Lid:Sal 1:2.5] | 132 °C
Lidocaine Salicylates [Lid:Sal 2:1] | 154 °C

Same assay, conditions: TGA/DSC, 25° C. to 600° C. with 5° C./min under nitrogen; tetrabutylphosphonium ibuprofenate-ibuprofenic co-ionic liquids

Molecule | T5%onset
CC(C)Cc1ccc(C(C)C(=O)[O-])cc1.CCCC[P+](CCCC)(CCCC)CCCC [P(Bu)4Ibu 1:1, Tetrabutylphosphonium Ibuprofenate] | 234 °C

Same assay, conditions: TGA/DSC, 25° C. to 600° C. with 5° C./min under nitrogen; tetrabutylphosphonium lactate-lactic acid co-ionic liquids

Molecule | T5%onset
CCCC[P+](CCCC)(CCCC)CCCC [P(Bu)4Lac 1:1, tetrabutylphosphonium lactate] | 262
CCCC[P+](CCCC)(CCCC)CCCC [P(Bu)4Lac 1:2, Tetrabutylphosphonium Lactate-lactic Acid] | 215

Same assay, conditions: TGA/DSC, 25° C. to 600° C. with 5° C./min under nitrogen; tetrabutylphosphonium salicylate-salicylic acid co-ionic liquids

Molecule | T5%onset
O=C(O)c1ccccc1O [Salicylic acid, reference compound] | 136 °C

Test: Thermocleavage of ionic liquid immobilized fragrance by TGA
Assay type: physicochemical
Details: TGA (FIG. 6)

Molecule | Thermocleavage, first decomposition step (release of geraniol)
CC(C)=CCC/C(C)=C/COC(=O)Cn1cc[n+](C)c1 [Example 44, (E)-1-(2-(3,7-dimethylocta-2,6-dienyloxy)-2-oxoethyl)-3-methyl-1H-imidazol-3-ium Docusate] | Mass loss of the first decomposition step obtained corresponds to mass percentage of Geraniol [1] in the prodrug [4]
